# Source: ChEMBL document CHEMBL1140326, “Dicarboxylic acid azacycle l-prolyl-pyrrolidine amides as prolyl oligopeptidase inhibitors and three-dimensional quantitative structure-activity relationship of the enzyme-inhibitor interactions” (J Med Chem, 2005)
# pIC50: −log10 of the molar value.
# Target: Prolyl endopeptidase (Sus scrofa, UniProt P23687)
# Assay: In vitro inhibitory activity against porcine prolyl oligopeptidase by using 4 mM Suc-Gly-Pro-7-amido-4-methylcoumarin as substrate (pH 7.0) at 30 degree C for 60 min
# Prolyl endopeptidase, sequence (P23687 whole entry): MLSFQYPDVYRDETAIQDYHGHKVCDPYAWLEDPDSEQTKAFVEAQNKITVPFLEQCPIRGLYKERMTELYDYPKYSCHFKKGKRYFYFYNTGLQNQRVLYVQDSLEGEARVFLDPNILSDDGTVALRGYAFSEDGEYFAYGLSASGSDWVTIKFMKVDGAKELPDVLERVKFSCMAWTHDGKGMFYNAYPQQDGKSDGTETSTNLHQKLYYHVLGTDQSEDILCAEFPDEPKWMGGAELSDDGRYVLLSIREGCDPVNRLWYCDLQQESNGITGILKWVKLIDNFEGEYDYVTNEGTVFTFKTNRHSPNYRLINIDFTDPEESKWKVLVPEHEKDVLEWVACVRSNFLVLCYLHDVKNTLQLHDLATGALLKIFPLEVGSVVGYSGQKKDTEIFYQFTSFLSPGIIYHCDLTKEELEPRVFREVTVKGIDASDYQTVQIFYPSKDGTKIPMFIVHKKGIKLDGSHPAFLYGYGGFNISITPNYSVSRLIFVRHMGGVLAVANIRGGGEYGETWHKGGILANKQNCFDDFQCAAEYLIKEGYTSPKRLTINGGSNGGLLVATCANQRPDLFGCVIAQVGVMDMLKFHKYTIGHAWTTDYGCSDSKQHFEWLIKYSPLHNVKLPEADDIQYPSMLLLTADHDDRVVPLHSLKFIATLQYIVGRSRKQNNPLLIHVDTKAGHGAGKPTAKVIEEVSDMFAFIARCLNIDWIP
row,pIC50,SMILES
1,9.41,CC(C)(CC(=O)N1CCCCCC1)CC(=O)N1CCC[C@H]1C(=O)N1CCC[C@H]1C#N
2,8.51,N#C[C@@H]1CCCN1C(=O)[C@@H]1CCCN1C(=O)c1ccccc1
3,8.16,N#C[C@@H]1CCCN1C(=O)[C@@H]1CCCN1C(=O)c1cccc(C(=O)N2CCCC2)c1
4,5.82,N#C[C@@H]1CCCN1C(=O)[C@@H]1CCCN1C(=O)c1ccccc1C(=O)N1CCCC1
5,7.11,O=C([C@@H]1CCCN1C(=O)CCC(=O)N1CCC[C@H]1C(=O)N1CCCC1)N1CCCC1
6,4.72,O=C(c1ccccc1C(=O)N1CCC[C@H]1C(=O)N1CCCC1)N1CCCC1
7,7.64,O=C([C@@H]1CCCN1C(=O)c1cccc(C(=O)N2CCC[C@H]2C(=O)N2CCCC2)c1)N1CCCCCC1
8,9.14,N#C[C@@H]1CCCN1C(=O)[C@@H]1CCCN1C(=O)c1cccc(C(=O)N2CCC[C@H]2C(=O)C2CCCCC2)c1
9,8.80,N#C[C@@H]1CCCN1C(=O)[C@@H]1CCCN1C(=O)c1ccc(C(=O)N2CCCC2)cc1
10,7.19,CC(=O)[C@@H]1CCCN1C(=O)c1cccc(C(=O)N2CCC[C@H]2C(=O)N2CCCC2)c1
11,7.17,O=C([C@@H]1CCCN1C(=O)CCCCC(=O)N1CCC[C@H]1C(=O)N1CCCC1)N1CCCC1
12,8.34,N#C[C@@H]1CCCN1C(=O)[C@@H]1CCCN1C(=O)c1cccc(C(=O)N2CCCCCC2)c1
13,8.38,CC(=O)[C@@H]1CCCN1C(=O)c1cccc(C(=O)N2CCC[C@H]2C(=O)N2CCC[C@H]2C#N)c1
14,8.80,CC(C)C(=O)[C@@H]1CCCN1C(=O)c1cccc(C(=O)N2CCC[C@H]2C(=O)N2CCC[C@H]2C#N)c1
15,5.92,O=C(CCC(=O)N1CCC[C@H]1C(=O)N1CCCC1)N1CCOCC1
16,7.48,O=C([C@@H]1CCCN1C(=O)c1cccc(C(=O)N2CCC[C@H]2C(=O)N2CCNCC2)c1)N1CCCC1

row,pIC50,SMILES
1,9.21,O=C(CO)[C@@H]1CCCN1C(=O)[C@@H]1CCCN1C(=O)c1cccc(C(=O)N2CCC[C@H]2C(=O)C2CCCC2)c1
2,7.51,O=C(NCc1ccccc1)[C@@H]1CCCN1C(=O)c1cccc(C(=O)N2CCC[C@H]2C(=O)N2CCCC2)c1
3,7.09,O=C(N[C@@H](Cc1ccccc1)C(=O)N1CCCC1)c1cccc(C(=O)N[C@@H](Cc2ccccc2)C(=O)N2CCCC2)c1
4,8.92,CC(=O)[C@@H]1CCCN1C(=O)c1cccc(C(=O)N2CCC[C@H]2C(=O)N2CCC[C@H]2C(=O)CO)c1
5,8.96,N#C[C@@H]1CCCN1C(=O)[C@@H]1CCCN1C(=O)c1cccc(C(=O)N2CCC[C@H]2C(=O)C2CCCC2)c1
6,7.09,O=C([C@@H]1CCCN1C(=O)c1ccc(C(=O)N2CCC[C@H]2C(=O)N2CCCC2)cc1)N1CCCC1
7,8.89,N#C[C@@H]1CCCN1C(=O)[C@@H]1CCCN1C(=O)c1cccc(C(=O)N2CCC[C@H]2C(=O)c2ccccc2)c1
8,7.74,O=C(c1ccccc1)[C@@H]1CCCN1C(=O)c1cccc(C(=O)N2CCC[C@H]2C(=O)N2CCCC2)c1
9,8.92,N#C[C@@H]1CCCN1C(=O)[C@@H]1CCCN1C(=O)CCCC(=O)N1CCCCCC1
10,6.96,O=C(CCC(=O)N1CCC[C@H]1C(=O)N1CCCC1)N1CCCC1
11,6.77,CC(C)(C)OC(=O)N1CCN(C(=O)[C@@H]2CCCN2C(=O)c2cccc(C(=O)N3CCC[C@H]3C(=O)N3CCCC3)c2)CC1
12,7.85,O=C(C1CCCC1)[C@@H]1CCCN1C(=O)c1cccc(C(=O)N2CCC[C@H]2C(=O)N2CCCC2)c1
13,8.54,N#C[C@@H]1CCCN1C(=O)[C@@H]1CCCN1C(=O)CCC(=O)N1CCCC1
14,9.12,N#C[C@@H]1CCCN1C(=O)[C@@H]1CCCN1C(=O)CCC(=O)N1CCCCCC1
15,9.66,O=C(CO)[C@@H]1CCCN1C(=O)[C@@H]1CCCN1C(=O)CCCc1ccccc1
16,7.39,O=C(CCC(=O)N1CCC[C@H]1C(=O)N1CCCC1)N1CCCCCC1
